1 compound from BindingDB's records for patent US11827644 (Suzhou Genhouse Pharmaceutical, 2023) can be followed below.

The assay concerns the target T1, Tyrosine-protein phosphatase non-receptor type 11 (Homo sapiens, UniProt Q06124).
T1 sequence (Q06124 whole entry): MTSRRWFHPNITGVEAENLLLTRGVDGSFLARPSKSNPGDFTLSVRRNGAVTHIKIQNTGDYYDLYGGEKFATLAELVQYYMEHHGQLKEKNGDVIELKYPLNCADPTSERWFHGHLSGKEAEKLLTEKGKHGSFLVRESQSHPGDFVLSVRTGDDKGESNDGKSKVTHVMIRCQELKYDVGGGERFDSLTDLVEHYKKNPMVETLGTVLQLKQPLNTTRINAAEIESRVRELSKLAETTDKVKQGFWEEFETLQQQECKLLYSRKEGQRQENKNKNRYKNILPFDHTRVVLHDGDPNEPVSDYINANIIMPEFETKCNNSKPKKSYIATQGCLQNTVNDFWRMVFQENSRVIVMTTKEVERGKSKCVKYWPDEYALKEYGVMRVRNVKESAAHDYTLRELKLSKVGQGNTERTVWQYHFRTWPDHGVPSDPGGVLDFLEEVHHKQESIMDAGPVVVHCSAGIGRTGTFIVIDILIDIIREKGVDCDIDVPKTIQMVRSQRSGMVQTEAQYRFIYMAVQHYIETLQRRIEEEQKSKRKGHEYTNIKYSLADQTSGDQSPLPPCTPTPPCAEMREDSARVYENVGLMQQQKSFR
The assay can be described thus: SHP2 Allosteric Inhibition Assay. Here is the method: The phosphatase reaction was conducted in 384-well black polystyrene plates (Corning, Cat #3575) with flat bottom, low edge and non-binding surface at room temperature and 25 μl final volume of the following buffer condition: 60 mM HEPES, pH 7.2, 75 mM NaCl, 75 mM KCl, 1 mM EDTA, 0.05% P-20, 5 mM DTT.The following experiments were conducted to monitor the SHP2 inhibition by the compounds (at concentrations of 0.0003-100 μM) in this invention:Wherein, incubate 0.5 nM SHP2 with 0.5 μM peptide IRS1_pY1172 (dPEG8) pY1222 (sequence: H2N-LN (pY) IDLDLV (dPEG8) LST (pY) ASINFQK-amide) (SEQ ID NO: 1) (WO2016/203406A1). After incubation at 25° C. for 30-60 minutes, the alternative substrate DiFMUP (Invitrogen, cat #D6567) was added to the reaction and incubated at 25° C. for 30 minutes. The reaction was then […] by adding 5 μL of a 160 μM bpV (Phen) solution (Enzo Life Sciences cat #ALX-270-204). The fluorescence signal was monitored using a microplate reader (VARIOSKAN LUX, Thermo) with excitation and emission wavelengths of 340 nm and 450 nm, respectively. The inhibitory dose-response curve is analyzed using a standardized IC50 regression curve based on control-based normalization.

As for `C[C@@H]1OCC2(CCN(c3cnc(Sc4cccc(-c5cscn5)c4Cl)cn3)CC2)[C@@H]1N` [US11827644, Example 33], the half-maximal inhibitory concentration (IC50) (commonly the concentration that inhibits the measured activity by half) was determined as 2.62 nM. That is a single-digit nanomolar value.
